Molecular target: HKU4-CoV 3CL^pro (Bat coronavirus HKU4, UniProt P0C6W3)
Assay type: biochemical, Tylonycteris bat coronavirus HKU4

Chain of HKU4-CoV 3CL^pro (P0C6W3 3292-3597 limits assumed): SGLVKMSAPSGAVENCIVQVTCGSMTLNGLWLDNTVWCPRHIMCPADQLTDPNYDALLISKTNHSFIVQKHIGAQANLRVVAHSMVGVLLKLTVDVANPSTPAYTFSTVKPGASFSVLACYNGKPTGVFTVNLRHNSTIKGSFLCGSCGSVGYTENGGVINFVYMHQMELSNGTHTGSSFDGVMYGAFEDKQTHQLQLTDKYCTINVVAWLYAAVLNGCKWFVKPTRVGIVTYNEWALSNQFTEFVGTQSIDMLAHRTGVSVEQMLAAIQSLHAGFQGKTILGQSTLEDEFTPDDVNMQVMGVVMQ

**Q.** `O=C(Nc1ccc(N(Cc2ccsc2)C(=O)Cn2nnc3ccccc32)cc1)c1cccs1` [1A] was tested. Which “IC50 (μM)” value did it give?
**A.** sub-micromolar

**Q.** `CC(C)C(=O)Nc1ccc(N(Cc2ccsc2)C(=O)Cn2ccnn2)cc1` [19A] was tested. Which “decrease in inhibitory potency between the analogs” value did it give?
**A.** ten-fold

**Q.** With `CC(=O)Nc1ccc(N(C(=O)Cn2nnc3ccccc32)C(C(=O)NC(C)(C)C)c2ccsc2)cc1` (stereo not shown) [3B] as the compound, how does the “increase in IC50” value read?
**A.** 5 fold

**Q.** Which fold more active does the source give for `O=C(Cn1nnc2ccccc21)N(Cc1ccsc1)c1ccc(-c2ccncc2)cc1` [5A] here?
**A.** 2 fold

**Q.** How did the “increase in IC50” value turn out when `O=C(Cn1nnc2ccccc21)NCc1ccsc1` [22A, 2-(1H-Benzo[d][1,2,3]triazol-1-yl)-N-(thiophen-3-ylmethyl)acetamide] was run?
**A.** greater than 200 fold

**Q.** How did the “increase in IC50” value turn out when `O=C(Cn1nnc2ccccc21)N(Cc1ccsc1)c1ccc(NCc2ccccc2)cc1` [17A] was run?
**A.** 10 fold

**Q.** For `O=C(Nc1ccc(N(Cc2ccsc2)C(=O)Cn2nnc3ccccc32)cc1)c1ccccc1` [2A], which “IC50 (μM)” value is on record?
**A.** sub-micromolar

Reference: article PMC5433438 (Bioorganic & Medicinal Chemistry, 2015)
